Assay results: PMC5335257, “Promoting in vivo remyelination with small molecules: a neuroreparative pharmacological treatment for Multiple Sclerosis” (Scientific Reports, 2017)

Key:
[1] = tested on: cerebellar slices demyelinated with LPC; experiment: Ex vivo remyelination in cerebellar slice cultures demyelinated with LPC; assay type: cell-based, CD1 P7 mice; details: 5 μM, 3 days post lesion (3DPL)
Protocol: The protocol used was modified from previously described. CD1 P7 mice were decapitated, and their cerebella were dissected into ice-cold HBSS (Invitrogen). 300 μm sagittal slices of cerebellum were cut using a McIllwain tissue chopper, placed on Millicell-CM organotypic culture inserts (3 slices per insert; Millipore) in a medium containing HBSS:BME: horse serum (1:2:1, Invitrogen), 28 mM D (+) - glucose (Normapur), […] L-Glutamine (Invitrogen) and 100 U/mL penicillin, 0.1 mg/mL streptomycin and 0.25 μg/ml Amphotericin B antibiotic anti-mycotic solution (Sigma) and maintained at 5% CO2 and 37 °C. Medium was changed every two days, and after 7 days in culture, demyelination was induced by addition of 0.5 mg/ml LPC (Sigma) to the medium for 15 h. After that, slices were treated with fresh medium containing PDE7-GSK3 or GSK3 inhibitors (VP1.15, VP3.15 or TDZD8; 5 μM). Cultures were maintained for 1 or 3 days post lesion (DPL), and then fixed for 40 minutes and immunostained with anti-MBP antibodies (myelin basic protein –as a marker of myelin; 1:200; Serotec; Cat#MCA4095) and anti-neurofilament antibody (as a marker of axons; 1:200; Abcam; Cat#ab8135). Fluorescence images were taken on a confocal SP5 resonant scanner (Leica Microsystems) at 1μm intervals in white matter areas at x40 magnification. The photographs were merged and co-localisation of both markers was quantified with Image J software using the colocalization highlighter plugin. This measurement was related to the area occupied by axons (neurofilament staining) and normalized with control values showing the data as the mean normalized myelination index ± SEM. Quantification was made in at least three independent experiments.

[2] = tested on: OPCs from P0 mice; experiment: Proliferation assay (BrdU incorporation); assay type: cell-based, mouse; details: murine P0 OPCs, 1 μM, 72 h
Protocol: We isolated OPCs, as previously described. Briefly, a stock papain solution was prepared containing ([…]; Worthington Biochemical), L-cysteine (0.2 mg/ml; Sigma), and EDTA (0.2 mg/ml; Sigma) in Hank’s Balanced Salt Solution (HBSS; Invitrogen) without Ca^2+ and Mg[2]. Then, the cerebral cortices of P0 CD1 mice were dissected out and placed for 5 minutes at 37 °C in a medium containing the stock papain solution in HBSS with Ca^2+ and Mg^2+ (1:10; Invitrogen) in order to easily remove the meninges. […] The resulting enriched oligodendrocyte progenitor cell suspension was counted and seeded.
OPCs were placed on coverslips coated with poly-L-lysine (Sigma) and laminin (Sigma; 2 × 10^4 cells/well) and they were incubated with the inhibitors (VP3.15 or TDZD8; 1 μM) in the serum free medium described above. After 42 h in culture, BrdU (50 μM; Sigma) was added for 6 h and after a total of 72 h in culture, the cells were fixed and BrdU incorporation was detected by immunocytochemistry (1:20; G3G4, HybridomaBank) combined with the detection of the oligodendroglial marker Olig2 (1:250; Millipore; Cat#AB9610). […]

[3] = tested on: PDE7; design: method as in PMID 24437940; details: cited from earlier work
[4] = tested on: OPCs isolated from P0 mice; experiment: Differentiation assay, murine OPCs; assay type: cell-based, mouse; details: murine P0 OPCs, 1 μM, 5, 7 and 10 DIV
Protocol: (§1) We isolated OPCs, as previously described. Briefly, a stock papain solution was prepared containing ([…]; Worthington Biochemical), L-cysteine (0.2 mg/ml; Sigma), and EDTA (0.2 mg/ml; Sigma) in Hank’s Balanced Salt Solution (HBSS; Invitrogen) without Ca^2+ and Mg[2]. Then, the cerebral cortices of P0 CD1 mice were dissected out and placed for 5 minutes at 37 °C in a medium containing the stock papain solution in HBSS with Ca^2+ and Mg^2+ (1:10; Invitrogen) in order to easily remove the meninges. Once meninges and choroid plexus were removed, the tissue was enzymatically dissociated for 5 minutes at 37 °C again by using the papain solution (1:10 in HBSS without Ca^2+ and Mg^2+) and the digested tissue was then filtered through a 100 μm nylon mesh strainer (BD Biosciences) and seeded on poly-L-ornithine-coated (Sigma) 75 cm^2 flasks in DMEM medium (Invitrogen) containing 10% foetal bovine serum (FBS; BioWhittaker) and 100 U/mL penicillin, 0.1 mg/mL streptomycin and 0.25 μg/ml Amphotericin B antibiotic antimycotic solution (Sigma). Cultures were maintained at 37 °C and 5% CO2, and the medium was changed every 3 days. When the cultures reached confluence, they were shaken overnight at 250 rpm and at 37 °C in order to detach the OPCs located on the top of the confluent astrocyte monolayer and the medium was then filtered through a 40μm nylon mesh strainer (BDBiosciences) and centrifuged at 900 rpm. Cells were seeded twice (45 minutes each) in bacterial grade Petri dishes (Sterilin) to remove microglial cells. The resulting enriched oligodendrocyte progenitor cell suspension was counted and seeded.
(§2) Purified OPCs were placed on coverslips coated with poly-L-lysine and laminin in 24-well tissue culture dishes at a density of 2 × 10^4 cells/well. To promote differentiation, the cells were maintained in the differentiation medium (described above) and PDE7-GSK3 or GSK3 inhibitors (VP3.15 or TDZD8; 1 μM) were added to the culture medium. Different controls were used for the dual or single inhibitors due to the active substance being dissolved in differing amounts of DMSO. After 5, 7 and 10 DIV the cells were fixed with 4% PFA for further immunocytochemical analysis. Anti-CNPase antibodies (1:200;Covance; Cat#SMI-91R), anti-MBP antibodies (1:200; Serotec; Cat#MCA4095) for detecting oligodendrocytes and anti-Olig2 antibodies (1:250; Millipore; Cat#AB9610) as a marker for all oligodendroglial stages were used. Ten random fluorescence digital images were taken in each coverslip with a DFC480 FX digital camera (Leica) coupled to a Leica DM5000 B microscope for quantification. Data were expressed as a mean ratio of differentiated oligodendrocytes (CNPase^+-Olig2^+ double positive cells) with respect to total Olig2^+ cells ± SEM or percentage of CNPase^+ cells respect to control ± SEM, in at least three independent experiments, except with human samples (two independent experiments).

[5] = tested on: GSK-3; design: method as in PMID 24437940; details: read-out: GSK-3 inhibition IC50; cited from earlier work
[6] = tested on: adult human OPCs; experiment: Differentiation assay, adult human OPCs; assay type: cell-based; details: adult human OPCs, 1 μM, 5 DIV
Protocol: Human brain samples were obtained from adult patients of temporal lobe epilepsy resistant to pharmacological treatment or traumatic brain injury; they underwent surgical treatment by the Neurosurgery Service at the Hospital Universitario de La Princesa (Madrid, Spain) and Hospital 12 de Octubre (Madrid, Spain). All tissue samples were obtained under protocols approved by the Research Ethics Committee of Toledo (Spain) review boards. All were conducted in accordance with the Helsinki Declaration and were approved by the Research Ethics Committee of Toledo (Spain). All patients provided informed consent prepared under the guidelines of the Research Ethics Committee at their respective hospital in Madrid (Spain).
For cells obtained from human biopsies, the same protocol was used except that papain solution was used 1:2.5 in HBSS for 10 minutes for meningeal disintegration and 1:10 in HBSS for 15 minutes for the tissue digestion, 25 cm[2] flasks were used, the medium was supplemented with 10 ng/ml of human PDGF-AA (Millipore) for 2 weeks and then incubated for 2 more weeks without growth factors before shaking and the shaking was carried out at 230 rpm instead of 250 rpm.
as §2

[7] = tested on: OPCs from P0 mice; experiment: Survival assay (Casp3+-A2B5+ cells); assay type: cell-based, mouse; details: murine P0 OPCs, 1 μM, 2 DIV
Protocol: as §1, with “When the cultures reached confluence, they were shaken overnight at 250 rpm and at 37 °C in order to detach the OPCs located on the top of the confluent astrocyte monolayer and the medium was then filtered through a 40μm nylon mesh strainer (BDBiosciences) and centrifuged at 900 rpm. Cells were seeded twice (45 minutes each) in bacterial grade Petri dishes (Sterilin) to remove microglial cells.” left out, “seeded. […]” for “seeded.”

## Cn1sc(=O)n(Cc2ccccc2)c1=O [TDZD8, reference compound]
[1]
  remyelination (normalized myelination index): no effect
[2]
  OPC proliferation (BrdU+-Olig2+ cells): no changes
[3]
  PDE7 inhibition: does not inhibit PDE7
[3]; read-out: PDE7 inhibition IC50
  IC50: > 100000 nM
[4]
  number of mature oligodendrocytes (CNPase+-Olig2+ cells) vs control: no effect
[5]
  IC50: 690 nM
[6]
  number of CNPase+-Olig2+ cells vs control (differentiation): did not show any effect
[7]
  OPC survival (Casp3+-A2B5+ apoptotic cells): increased OPC survival
